Source: publication PMC4696656, “Insights into the Mechanism of Action of Bactericidal Lipophosphonoxins” (PLoS ONE, 2015)
≈ marks a conversion by molar mass, not a printed value. Read-outs that look alike come from different tables or passages of the source.

How the values were obtained:
B. subtilis 168 = assay: Selection for resistant strains, stepwise two-fold increased concentration; assay type: cell-based, Bacillus subtilis; settings: 24 h cultures, two-fold increased concentration each transfer; rifampicin from 0.01 mg/L, DR5026 from 0.5 mg/L
Protocol: A) B. subtilis. […] Then, the growth of the culture was evaluated by OD600nm and an aliquot of the culture was transferred to a new tube with fresh medium and a two-fold increased concentration of the active compound. This template was followed until no growth was detected for DR5026 or until B. subtilis grew at 5 mg/L of rifampicin.

Bacillus subtilis = assay: MIC, standard microdilution method
[1] = comparable conditions, 1 M salt solution, cited from earlier work
[2] = system: Mouse macrophages J774A.1; assay: Membrane permeabilization assay (propidium iodide uptake); assay type: cell-based; settings: LPPOs 10 mg/L, melittin 10 μM
Protocol: Mouse macrophages J774A.1 (ATCC, number TIB-67) were cultured at 37°C in a humidified air/CO2 (19:1) atmosphere in RPMI medium supplemented with 10% (v/v) heat-inactivated fetal bovine serum, penicillin (100 IU/ml), streptomycin (100 mg/L), and amphotericin B (250 μg/L). For fluorescence measurements, cells were mechanically harvested, seeded on glass coverslips in 6-well plates, and grown to 30% confluence (about 2x10^5 cells). Cells grown on coverslips were washed in modified HBSS solution (140 mM NaCl, 5 mM KCl, 2 mM CaCl2, 3 mM MgCl2, 10 mM HEPES-Na, 50 mM glucose, pH 7.4) and promptly mounted into custom-made polypropylene holder which was placed horizontally into a quartz cuvette filled with HBSS containing 10 μM PI. The uptake of PI was observed as fluorescence increase using identical setting as with bacterial cells (see above). The observed area of the coverslip was about 10 mm^2, corresponding to approximately 10^4 cells.

Question: For `CO[C@H]1/C=C/O[C@@]2(C)Oc3c(C)c(O)c4c(O)c(c(/C=N/N5CCN(C)CC5)c(O)c4c3C2=O)NC(=O)/C(C)=C\C=C\[C@H](C)[C@H](O)[C@@H](C)[C@@H](O)[C@@H](C)[C@H](OC(C)=O)[C@@H]1C` [rifampicin, reference compound], which development of resistance (B. subtilis 168) is on record?
Answer: Its development of resistance is “able to obtain cells growing in the presence of 5 mg/L of rifampicin”.

Question: What about the “MIC against wt B. subtilis” value (Bacillus subtilis; B. subtilis 168, as stated for the resistance selection experiment) of the same compound?
Answer: Its value is 0.06 µg/mL (≈ 0.0729 µM).

Question: What about the MIC (Bacillus subtilis; Bacillus subtilis, read-out: MIC against wt B. subtilis, B. subtilis 168, as stated for the resistance selection experiment) of the same compound?
Answer: Its MIC is ~0.06 µg/mL (≈ 0.0729 µM).

Question: With alamethicin as the compound, how does the channel conductance ([1]; no reference given) read?
Answer: The channel conductance was “ca. 600 pS”.

Question: Which channel conductance [1] does the source give for gramicidin A here?
Answer: The channel conductance was “ca. 20 pS”.

Question: Which “effect on cytoplasmic membrane permeability (PI uptake)” value [2] does the source give for melittin here?
Answer: The value was “did so”.
